Results from ChEMBL document CHEMBL1201862, “PubChem BioAssay data set” (2004).
Activity calls are given as the source filed them.

Legend:
[1] = potency of ADAM10 substrate cleavage blockers – biochemical, QFRET, dose response (AID 743254);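 also: ADAM10 enzyme with the DM2 quenched FRET peptide as substrate; EDANS fluorescence gain as the protease cuts the substrate; inhibitor potency against ADAM10 proteolytic activity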
[2] = target: T1, Disintegrin and metalloproteinase domain-containing protein 17 (Homo sapiens, UniProt P78536); experiment: inhibition of ADAM17 substrate cleavage – biochemical, quenched FRET substrate, counter-screen for ADAM10 exosite inhibitor project, dose response (AID 743253)
[3] = Trypanosoma cruzi growth suppression in host cells – NIH3T3 host cells, beta-gal luminescence, confirmation (AID 2044); type: functional, cell-based;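 also: intracellular parasites grown in NIH/3T3 mouse fibroblasts as host cells; luminescent beta-galactosidase reporter signal from transgenic T. cruzi replicating inside host cells; inhibitors lower the luminescence signal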
[4] = NIH3T3 cell viability loss – ATP luminescence, mouse fibroblasts, counter-screen, dose response (AID 2010); type: functional, cell-based;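 also: cells exposed to compound for about 90 hours before reading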
[5] = A cytotoxicity screen of small molecule inhibitors of the PhoP region in Salmonella typhi identified in the primary screen. [Related pubchem assays: 1850, 1864, 1985 ]; type: functional
[6] = general mammalian cell viability loss – inhibitor set, cherry-pick, set 2, cytotoxicity control for miR-122 modulator project, dose response (AID 720697); type: functional, cell-based
[7] = target: T1, Disintegrin and metalloproteinase domain-containing protein 17; experiment: exosite inhibitors of ADAM17, dose response, biochemical (AID 743260)
[8] = inhibition of ADAM10 peptide cleavage – biochemical, FRET peptide substrate, recombinant human ADAM10, selectivity assay for ADAM17 exosite inhibitor project, dose response (AID 743259);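 also: ADAM10 enzyme cleaving a FRET peptide substrate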
[9] = target: Glyceraldehyde-3-phosphate dehydrogenase (Homo sapiens, UniProt P04406)
[10] = target: Heat shock cognate 71 kDa protein (Homo sapiens, UniProt P11142); experiment: In Vitro Hsc70 Dose Response Fluorescence Polarization Assay. [Related pubchem assays: 1072 ]
[11] = target: Heat shock 70 kDa protein 1A (Homo sapiens, UniProt P0DMV8); experiment: inhibition of Hsp70 binding activity – biochemical, fluorescence polarization, SAR follow-up (AID 1072)
Bcl-2-related protein A1 [12] = target: T2, Bcl-2-related protein A1 (Mus musculus, UniProt Q07440); experiment: small-molecule antagonists of Bfl-1/BH3 interaction – biochemical, TR-FRET, mouse Bfl-1, confirmation (AID 621);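 also: TR-FRET binding of GST-Bfl-1 to FITC-labelled Bid peptide via terbium antibody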
T2 sequence (Q07440 whole entry): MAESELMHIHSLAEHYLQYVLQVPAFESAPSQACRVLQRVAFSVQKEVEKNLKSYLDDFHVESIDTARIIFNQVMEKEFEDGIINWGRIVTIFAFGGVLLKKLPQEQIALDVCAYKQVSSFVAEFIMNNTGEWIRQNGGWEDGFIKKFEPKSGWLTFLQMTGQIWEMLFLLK

Bcl-2-related protein A1 [13] = target: T2, Bcl-2-related protein A1; experiment: Bfl-1 binding inhibitors, SAR follow-up, biochemical, fluorescence polarization (AID 1070)
Paired box protein Pax-8 = Paired box protein Pax-8 (Homo sapiens, UniProt Q06710); experiment: PAX8 transcriptional activity inhibition in RMG-I – RMG-I cells, luciferase, cherry-pick, dose response (AID 687027); type: functional, cell-based;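 also: luciferase reporter driven by Pax8 target thyroperoxidase promoter measured by SteadyGlo luminescence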
Prothrombin = Prothrombin (Homo sapiens, UniProt P00734); experiment: Thrombin 1536 HTS Dose Response Confirmation. [Related pubchem assays: 1046 (Thrombin 1536 HTS; hits were confirmed in this assay)]; type: functional
Caspase-3 = target: T3, Caspase-3 (Homo sapiens, UniProt P42574); type: functional;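 also: Dose-response selectivity test against caspase-3 for candidate inhibitors of sentrin-specific proteases (SENPs)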
T3 sequence (P42574 whole entry): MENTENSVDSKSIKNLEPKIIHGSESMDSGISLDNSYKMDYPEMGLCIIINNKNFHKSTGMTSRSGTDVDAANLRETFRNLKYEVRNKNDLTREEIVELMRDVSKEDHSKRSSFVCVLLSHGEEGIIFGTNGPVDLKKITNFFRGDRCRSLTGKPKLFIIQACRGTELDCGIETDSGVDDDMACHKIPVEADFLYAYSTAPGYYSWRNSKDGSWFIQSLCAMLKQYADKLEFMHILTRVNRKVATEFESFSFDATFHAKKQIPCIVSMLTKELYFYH

[14] = target: T4, Sentrin-specific protease 7 (Homo sapiens, UniProt Q9BQF6); type: functional;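 also: Luminescence-based dose-response confirmation of ultra-high-throughput screening hits, measuring inhibition of SENP7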
T4 sequence (Q9BQF6 whole entry): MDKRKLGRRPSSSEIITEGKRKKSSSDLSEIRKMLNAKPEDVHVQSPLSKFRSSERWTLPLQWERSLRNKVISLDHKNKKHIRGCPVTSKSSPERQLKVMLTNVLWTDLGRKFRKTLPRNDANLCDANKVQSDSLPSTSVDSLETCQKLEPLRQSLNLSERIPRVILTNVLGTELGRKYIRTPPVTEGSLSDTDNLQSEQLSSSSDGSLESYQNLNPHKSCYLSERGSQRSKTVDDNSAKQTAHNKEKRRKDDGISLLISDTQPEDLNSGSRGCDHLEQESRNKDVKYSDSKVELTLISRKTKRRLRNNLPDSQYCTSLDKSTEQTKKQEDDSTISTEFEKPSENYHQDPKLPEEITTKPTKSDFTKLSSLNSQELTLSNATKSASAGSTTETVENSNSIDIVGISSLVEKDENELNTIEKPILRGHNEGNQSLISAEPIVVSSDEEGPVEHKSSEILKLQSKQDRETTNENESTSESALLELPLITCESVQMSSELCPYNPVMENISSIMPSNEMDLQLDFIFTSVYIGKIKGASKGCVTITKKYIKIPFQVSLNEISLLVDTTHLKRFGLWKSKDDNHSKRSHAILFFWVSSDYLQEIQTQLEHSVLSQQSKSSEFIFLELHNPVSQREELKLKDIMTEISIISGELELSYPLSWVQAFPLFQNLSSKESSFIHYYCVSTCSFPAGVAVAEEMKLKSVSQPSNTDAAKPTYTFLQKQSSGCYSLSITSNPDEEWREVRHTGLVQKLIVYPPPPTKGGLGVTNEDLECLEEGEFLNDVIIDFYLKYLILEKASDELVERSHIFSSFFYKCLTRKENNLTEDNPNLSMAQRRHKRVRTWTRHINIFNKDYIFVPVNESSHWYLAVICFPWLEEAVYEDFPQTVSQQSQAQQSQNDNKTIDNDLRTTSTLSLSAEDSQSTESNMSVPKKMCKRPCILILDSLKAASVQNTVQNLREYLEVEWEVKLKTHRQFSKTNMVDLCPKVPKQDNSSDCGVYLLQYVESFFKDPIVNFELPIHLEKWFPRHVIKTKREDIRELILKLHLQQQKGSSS

[15] = target: T5, Sentrin-specific protease 6 (Homo sapiens, UniProt Q9GZR1); type: functional;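 also: Luminescence-based dose-response confirmatory assay of SENP6 inhibition, following up an ultra-high-throughput screen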
T5 sequence (Q9GZR1 whole entry): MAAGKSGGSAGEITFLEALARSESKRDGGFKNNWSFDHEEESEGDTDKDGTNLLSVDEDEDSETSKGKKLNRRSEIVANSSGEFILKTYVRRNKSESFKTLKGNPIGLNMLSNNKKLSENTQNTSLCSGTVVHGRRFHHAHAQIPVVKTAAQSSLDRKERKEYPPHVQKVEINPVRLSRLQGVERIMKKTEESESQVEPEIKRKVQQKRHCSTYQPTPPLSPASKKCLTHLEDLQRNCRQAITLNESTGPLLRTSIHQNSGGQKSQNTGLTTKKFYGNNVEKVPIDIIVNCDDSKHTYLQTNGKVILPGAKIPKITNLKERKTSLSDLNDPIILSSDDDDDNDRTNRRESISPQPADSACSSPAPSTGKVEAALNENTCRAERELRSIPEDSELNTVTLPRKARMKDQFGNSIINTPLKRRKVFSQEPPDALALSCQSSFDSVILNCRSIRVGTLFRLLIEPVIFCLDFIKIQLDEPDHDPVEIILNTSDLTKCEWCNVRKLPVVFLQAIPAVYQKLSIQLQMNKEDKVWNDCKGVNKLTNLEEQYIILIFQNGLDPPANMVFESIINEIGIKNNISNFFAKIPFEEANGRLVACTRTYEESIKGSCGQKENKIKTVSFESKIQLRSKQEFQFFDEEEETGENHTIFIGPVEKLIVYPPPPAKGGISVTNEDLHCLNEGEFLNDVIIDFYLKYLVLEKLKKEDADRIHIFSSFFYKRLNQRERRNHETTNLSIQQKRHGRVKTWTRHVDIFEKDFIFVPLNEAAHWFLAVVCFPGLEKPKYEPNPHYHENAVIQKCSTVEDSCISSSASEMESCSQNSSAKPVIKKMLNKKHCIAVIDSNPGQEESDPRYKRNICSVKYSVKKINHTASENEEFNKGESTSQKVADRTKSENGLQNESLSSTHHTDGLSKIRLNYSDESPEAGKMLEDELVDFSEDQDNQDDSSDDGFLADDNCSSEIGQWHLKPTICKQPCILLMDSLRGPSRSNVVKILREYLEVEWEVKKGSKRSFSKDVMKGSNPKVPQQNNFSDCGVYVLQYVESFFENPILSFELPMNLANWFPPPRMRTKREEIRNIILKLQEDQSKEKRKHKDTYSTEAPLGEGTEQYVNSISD

[16] = target: T6, Sentrin-specific protease 8 (Homo sapiens, UniProt Q96LD8); type: functional;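 also: luminescence read-out of SENP8 inhibition, dose-response confirmation following an ultra-high-throughput screen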
T6 sequence (Q96LD8 whole entry): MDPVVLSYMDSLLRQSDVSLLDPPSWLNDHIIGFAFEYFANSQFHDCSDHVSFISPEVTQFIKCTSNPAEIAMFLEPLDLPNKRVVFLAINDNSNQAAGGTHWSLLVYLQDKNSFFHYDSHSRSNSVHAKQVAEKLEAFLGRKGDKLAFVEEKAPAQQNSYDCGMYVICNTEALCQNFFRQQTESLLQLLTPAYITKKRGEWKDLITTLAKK

[17] = target: T7, Fructose-bisphosphate aldolase (Mycobacterium tuberculosis, UniProt P9WQA3); experiment: Fluorescence-based biochemical high throughput dose response assay for inhibitors of the fructose-bisphosphate aldolase (FBA) of M. tuberculosis.; type: functional
T7 sequence (P9WQA3 whole entry): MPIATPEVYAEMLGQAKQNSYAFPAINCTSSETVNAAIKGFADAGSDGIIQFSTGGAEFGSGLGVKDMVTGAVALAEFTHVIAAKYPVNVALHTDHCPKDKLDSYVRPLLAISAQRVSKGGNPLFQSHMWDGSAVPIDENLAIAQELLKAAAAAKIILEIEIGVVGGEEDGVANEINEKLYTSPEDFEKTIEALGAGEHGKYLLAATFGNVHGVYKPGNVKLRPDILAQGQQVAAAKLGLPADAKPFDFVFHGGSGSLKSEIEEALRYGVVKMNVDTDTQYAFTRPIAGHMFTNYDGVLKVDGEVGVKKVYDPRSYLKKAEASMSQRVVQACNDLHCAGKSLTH

[18] = target: Luciferin 4-monooxygenase (Photinus pyralis, UniProt P08659); experiment: Counter Screen for Luciferase-based Assay Positives. [Related pubchem assays: 620, 618, 411 ]
HT-1080 = experiment: HT1080 cell viability loss – fluorescence readout (AID 620); type: functional, cell-based; conditions: Homo sapiens
[19] = general cell-killing toxicity readout – plate reader, dry powder samples, cytotoxicity control for PAX8 inhibitor project, dose response (AID 743021); type: functional, cell-based

T1 sequence (P78536 whole entry, the tested form may be a part): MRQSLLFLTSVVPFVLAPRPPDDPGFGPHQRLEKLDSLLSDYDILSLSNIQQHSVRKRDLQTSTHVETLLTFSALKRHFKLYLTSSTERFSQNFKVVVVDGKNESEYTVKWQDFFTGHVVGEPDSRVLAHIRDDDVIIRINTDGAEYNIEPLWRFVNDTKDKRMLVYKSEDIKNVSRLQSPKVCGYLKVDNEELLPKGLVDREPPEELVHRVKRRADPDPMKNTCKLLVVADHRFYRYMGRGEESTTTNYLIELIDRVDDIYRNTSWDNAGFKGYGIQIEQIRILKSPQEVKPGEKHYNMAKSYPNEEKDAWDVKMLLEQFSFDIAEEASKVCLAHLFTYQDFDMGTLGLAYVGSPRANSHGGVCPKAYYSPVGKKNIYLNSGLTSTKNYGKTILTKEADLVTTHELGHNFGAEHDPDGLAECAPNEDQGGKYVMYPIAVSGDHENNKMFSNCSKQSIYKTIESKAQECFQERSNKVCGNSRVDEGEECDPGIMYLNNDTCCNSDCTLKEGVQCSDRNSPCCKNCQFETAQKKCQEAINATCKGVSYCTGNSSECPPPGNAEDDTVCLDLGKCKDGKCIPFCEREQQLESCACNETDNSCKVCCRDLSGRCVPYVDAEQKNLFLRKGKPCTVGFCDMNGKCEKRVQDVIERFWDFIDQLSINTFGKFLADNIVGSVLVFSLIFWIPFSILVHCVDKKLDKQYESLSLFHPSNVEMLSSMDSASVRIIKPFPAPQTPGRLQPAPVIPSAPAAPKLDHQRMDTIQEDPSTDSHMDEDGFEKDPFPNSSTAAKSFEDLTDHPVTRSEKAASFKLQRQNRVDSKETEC
Chain of Paired box protein Pax-8 (Q06710 whole entry): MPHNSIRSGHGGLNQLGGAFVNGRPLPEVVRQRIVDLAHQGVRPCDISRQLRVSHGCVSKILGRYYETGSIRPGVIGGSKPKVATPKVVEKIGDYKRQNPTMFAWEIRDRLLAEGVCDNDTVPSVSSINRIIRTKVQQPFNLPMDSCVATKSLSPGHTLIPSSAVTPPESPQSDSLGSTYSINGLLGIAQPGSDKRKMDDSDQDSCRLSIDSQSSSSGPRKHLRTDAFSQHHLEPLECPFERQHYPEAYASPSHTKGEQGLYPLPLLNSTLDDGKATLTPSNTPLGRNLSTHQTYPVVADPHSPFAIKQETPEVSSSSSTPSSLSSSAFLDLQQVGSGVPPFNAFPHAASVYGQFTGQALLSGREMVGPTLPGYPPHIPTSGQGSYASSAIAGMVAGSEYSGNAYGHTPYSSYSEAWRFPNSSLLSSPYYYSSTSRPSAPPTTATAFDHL
Chain of Glyceraldehyde-3-phosphate dehydrogenase (P04406 whole entry): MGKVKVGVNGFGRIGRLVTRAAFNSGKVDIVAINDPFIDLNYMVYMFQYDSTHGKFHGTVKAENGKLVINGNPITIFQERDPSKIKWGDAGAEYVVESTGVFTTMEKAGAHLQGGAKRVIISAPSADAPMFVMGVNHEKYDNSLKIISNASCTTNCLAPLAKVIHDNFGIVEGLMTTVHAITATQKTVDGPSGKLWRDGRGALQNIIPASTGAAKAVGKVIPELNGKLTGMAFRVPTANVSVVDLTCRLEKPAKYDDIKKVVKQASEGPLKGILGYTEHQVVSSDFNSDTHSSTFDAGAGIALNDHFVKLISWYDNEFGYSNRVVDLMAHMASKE
Chain of Luciferin 4-monooxygenase (P08659 whole entry): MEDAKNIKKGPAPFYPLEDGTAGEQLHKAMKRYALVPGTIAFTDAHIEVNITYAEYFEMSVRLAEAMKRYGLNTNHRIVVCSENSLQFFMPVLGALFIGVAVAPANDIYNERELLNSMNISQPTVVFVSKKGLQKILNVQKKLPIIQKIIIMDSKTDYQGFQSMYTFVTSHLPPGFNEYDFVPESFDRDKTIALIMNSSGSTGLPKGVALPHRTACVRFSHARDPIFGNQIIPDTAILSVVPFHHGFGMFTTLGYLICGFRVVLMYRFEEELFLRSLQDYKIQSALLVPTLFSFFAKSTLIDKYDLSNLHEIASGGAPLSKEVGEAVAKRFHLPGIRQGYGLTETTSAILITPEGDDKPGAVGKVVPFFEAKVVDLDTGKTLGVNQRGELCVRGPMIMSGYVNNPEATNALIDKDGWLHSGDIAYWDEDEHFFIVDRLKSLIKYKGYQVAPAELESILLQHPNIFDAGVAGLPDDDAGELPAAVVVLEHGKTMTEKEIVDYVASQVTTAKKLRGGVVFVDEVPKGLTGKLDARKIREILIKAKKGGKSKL
Chain of Heat shock cognate 71 kDa protein (P11142 whole entry): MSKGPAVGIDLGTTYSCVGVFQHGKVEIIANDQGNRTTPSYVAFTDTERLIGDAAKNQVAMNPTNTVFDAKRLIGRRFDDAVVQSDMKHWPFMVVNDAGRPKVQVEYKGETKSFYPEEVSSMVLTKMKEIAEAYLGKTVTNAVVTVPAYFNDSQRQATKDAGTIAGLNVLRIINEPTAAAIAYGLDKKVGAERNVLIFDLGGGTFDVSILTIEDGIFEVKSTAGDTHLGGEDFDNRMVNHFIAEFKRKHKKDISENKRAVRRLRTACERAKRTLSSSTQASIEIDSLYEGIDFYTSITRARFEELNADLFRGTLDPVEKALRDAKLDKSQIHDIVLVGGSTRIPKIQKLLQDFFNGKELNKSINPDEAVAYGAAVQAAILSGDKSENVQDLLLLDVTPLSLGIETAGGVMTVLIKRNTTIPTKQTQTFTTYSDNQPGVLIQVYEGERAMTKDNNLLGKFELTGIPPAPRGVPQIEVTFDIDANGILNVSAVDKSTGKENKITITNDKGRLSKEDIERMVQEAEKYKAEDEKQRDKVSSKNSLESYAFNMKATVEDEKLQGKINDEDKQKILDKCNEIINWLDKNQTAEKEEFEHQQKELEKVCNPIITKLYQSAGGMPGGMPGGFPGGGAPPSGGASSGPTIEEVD
Chain of Heat shock 70 kDa protein 1A (P0DMV8 whole entry): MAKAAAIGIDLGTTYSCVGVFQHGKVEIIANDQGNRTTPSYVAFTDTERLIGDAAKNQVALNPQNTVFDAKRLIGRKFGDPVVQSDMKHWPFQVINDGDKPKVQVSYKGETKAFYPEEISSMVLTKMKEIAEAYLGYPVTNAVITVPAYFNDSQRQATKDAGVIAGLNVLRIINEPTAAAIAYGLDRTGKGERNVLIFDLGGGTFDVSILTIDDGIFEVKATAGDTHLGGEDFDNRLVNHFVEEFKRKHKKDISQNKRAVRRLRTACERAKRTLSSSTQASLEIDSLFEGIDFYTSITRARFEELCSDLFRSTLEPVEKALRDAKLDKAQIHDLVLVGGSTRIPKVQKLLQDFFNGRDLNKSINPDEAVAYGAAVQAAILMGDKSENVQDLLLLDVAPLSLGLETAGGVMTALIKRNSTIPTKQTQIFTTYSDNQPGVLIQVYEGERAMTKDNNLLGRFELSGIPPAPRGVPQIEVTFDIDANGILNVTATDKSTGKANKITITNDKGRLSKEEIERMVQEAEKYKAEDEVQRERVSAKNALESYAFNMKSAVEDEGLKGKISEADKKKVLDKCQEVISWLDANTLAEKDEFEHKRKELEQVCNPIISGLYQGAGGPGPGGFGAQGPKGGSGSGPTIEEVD

CC(C)(C)OC(=O)NCc1ccc(CNC(=O)c2[nH]cnc2C(=O)N[C@@H](Cc2ccccc2)C(=O)OC(C)(C)C)cc1
IC50 [1]: 9.77 µM (active)

CC(C)(C)OC(=O)NCc1ccc(CNC(=O)c2nc[nH]c2C(=O)N[C@@H](Cc2ccccc2)C(=O)OC(C)(C)C)cc1
IC50 [2]: > 69.5 µM (inactive)

CCCCN(C)CCNC(=O)c1nn(-c2ccc(OC)cc2)c(=O)c2c1c1ccccc1n2C
EC50 [3]: < 0.1 µM (active)
EC50 [4]: > 60 µM (not active)
EC50 (cells): 0.44 µM (active)

CC(C)N(CCn1c(SCC(=O)N2CC(=O)Nc3ccccc32)nc2ccccc2c1=O)C(C)C
EC50 [3]: < 0.1 µM (active)
EC50 [4]: > 60 µM (not active)
EC50 (cells): 0.061 µM (active)

CC(=O)N(CCC1(c2ccc(C)cc2)CCOC(C(C)C)C1)Cc1ccco1 (stereo not drawn)
EC50 [5]: > 50 µM (active)

CCc1nc2sc(C)c(C)c2c(=O)n1CCO
AC50 [6]: 8.36 µM (active)

Cc1sc2nc(SCC(=O)c3ccc(O)c(O)c3)n(Cc3ccco3)c(=O)c2c1C
IC50 [7]: > 69.5 µM (inactive)
IC50 [8]: > 69.5 µM (inactive)

O=C1C(Cl)=C(N2CCN(CCOCCO)CC2)C(=O)N1c1ccc(Cl)c(Cl)c1
IC50 [9]: > 100 µM (not active)
IC50 [10]: > 100 µM (not active)
IC50 [11]: > 100 µM (not active)
IC50 (Bcl-2-related protein A1 [12]): 0.42 µM (active)
IC50 (Bcl-2-related protein A1 [13]): 0.47 µM (active)

CCOc1ccc(CCN2C(=S)N([C@@H](Cc3ccc(O)cc3)CN3CCC[C@@H]3CN3C(=S)NC[C@@H]3CC(C)C)C[C@@H]2Cc2ccc(O)cc2)cc1
AC50 (Paired box protein Pax-8): 8.84 µM (active)
IC50 [1]: 12.4 µM (inactive)
IC50 [2]: > 69.5 µM (inactive)

Cc1cccc(Nc2nnc(SCC(=O)c3ccc(Br)s3)s2)c1C
IC50 [7]: > 69.5 µM (inactive)
IC50 [8]: > 69.5 µM (inactive)

Cc1nc(C)c(-c2ccc(SCc3ccccc3C)nn2)s1
EC50 [5]: > 50 µM (active)

COc1ccc(NC(=S)Nc2ccc3cn[nH]c3c2)cc1
IC50 (Prothrombin): 5.6 µM (active)

COc1ccc(C2C(=O)c3ccccc3C2=O)cc1OC
IC50 (Prothrombin): > 50 µM (not active)

CC(=O)N1C(=O)/C(=C2\SC(=S)N(NC(=O)c3ccc(O)cc3)C2=O)c2ccccc21
IC50 (Caspase-3): 12.9 µM (active)
IC50 [14]: 35.3 µM (active)
IC50 [15]: 3.1 µM (active)
IC50 [16]: 10.3 µM (active)
IC50 [17]: 4.74 µM (active)

COCC(=O)N(C)C[C@@H]1[C@H](c2ccc(-c3ccccc3)cc2)[C@@H](CO)N1C(C)=O
AC50 [6]: 9.74 µM (active)

O=c1oc(-c2ccccc2[N+](=O)[O-])nc2ccccc12
IC50 (Prothrombin): 0.116 µM (active)

Cc1ccccc1CN(c1ccc(C(=O)Nc2ccccc2C(=O)NCc2ccco2)cc1)S(C)(=O)=O
IC50 [1]: > 69.5 µM (inactive)
IC50 [2]: > 69.5 µM (inactive)

COc1nc(C)ccc1-c1noc(-c2ccco2)n1
EC50 [18]: 1.78 µM (active)
EC50 (HT-1080): > 50 µM (not active)

COC(=O)C1=C(C)N(Cc2cccc(C(F)(F)F)c2)C(NCC2CC2)=NC1c1cccc(C(F)(F)F)c1 (stereo not drawn)
AC50 (Paired box protein Pax-8): 17.2 µM (active)
AC50 [19]: 20.8 µM (active)
